Laboratory results: PubChem BioAssay AID2060888 (Molecular Pharmacology Branch, DTP, NCI, 2025)
pIC50: −log10 of the molar value. One block for each molecule: values may come before it.

Tested on: 695427-040-R-J1-PDC complex spheroid viability
Assay: Anticancer human tumor 695427-040-R-J1-PDC patient-derived colon adenocarcinoma cell line growth inhibition [RAS]
Settings: for viability, T/C: stronger effect = lower value
Method in brief: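 Multi-cell-type spheroids: tumor cells plus HUVEC endothelial cells and mesenchymal stem cells. RAS-pathway inhibitors were combined with targeted agents, each dosed in half-log steps down from clinical Cmax, or from 10 microM when Cmax was unknown.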

[1] = curve of first compound, second compound 0.0316 µM
[2] = curve of first compound, second compound 0.1 µM
[3] = curve of first compound, second compound 0.316 µM
[4] = curve of first compound, second compound 1 µM
[5] = curve of first compound, second compound 3.16 µM
[6] = curve of first compound, second compound 10 µM
[7] = second compound 0.0316 µM, first compound 0.0316 µM
[8] = second compound 0.0316 µM, first compound 0.1 µM
[9] = second compound 0.0316 µM, first compound 0.316 µM
[10] = second compound 0.0316 µM, first compound 1 µM
[11] = second compound 0.1 µM, first compound 0.0316 µM
[12] = second compound 0.1 µM, first compound 0.1 µM
[13] = second compound 0.1 µM, first compound 0.316 µM
[14] = second compound 0.1 µM, first compound 1 µM
[15] = second compound 0.316 µM, first compound 0.0316 µM
[16] = second compound 0.316 µM, first compound 0.1 µM
[17] = second compound 0.316 µM, first compound 0.316 µM
[18] = second compound 0.316 µM, first compound 1 µM
[19] = second compound 1 µM, first compound 0.0316 µM
[20] = second compound 1 µM, first compound 0.1 µM
[21] = second compound 1 µM, first compound 0.316 µM
[22] = second compound 1 µM, first compound 1 µM
[23] = second compound 3.16 µM, first compound 0.0316 µM
[24] = second compound 3.16 µM, first compound 0.1 µM
[25] = second compound 3.16 µM, first compound 0.316 µM
[26] = second compound 3.16 µM, first compound 1 µM
[27] = second compound 10 µM, first compound 0.0316 µM
[28] = second compound 10 µM, first compound 0.1 µM
[29] = second compound 10 µM, first compound 0.316 µM
[30] = second compound 10 µM, first compound 1 µM
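Note: viability read after seven days of drug exposure.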
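Throughout, for viability, T/C: 100% = DMSO vehicle control viability.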

pIC50 (curve of first compound, second compound 0.00316 µM): < 6.52
pIC50 (curve of first compound, second compound 0.01 µM): < 6.52
pIC50 [1]: < 6.52
pIC50 [2]: < 6.52
pIC50 [3]: < 6.52
pIC50 [4]: < 6.52
Structure (SMILES): CC1(C)CCC(Nc2ncc(C(F)(F)F)c(-c3c[nH]c4c(P(C)(C)=O)c(C#N)ccc34)n2)CN1 (stereo not drawn) + C=CC(=O)N1CCN(c2nc(OCC3CCCN3C)nc3c(F)c(-c4nc(N)cc(C)c4C(F)(F)F)c(Cl)cc23)C(C)C1
viability, T/C (second compound 0.00316 µM, first compound 0.000949 µM): 116%
viability, T/C (second compound 0.00316 µM, first compound 0.003 µM): 107%
viability, T/C (second compound 0.00316 µM, first compound 0.00949 µM): 90.6%
viability, T/C (second compound 0.00316 µM, first compound 0.03 µM): 86.5%
viability, T/C (second compound 0.00316 µM, first compound 0.0949 µM): 84.6%
viability, T/C (second compound 0.00316 µM, first compound 0.3 µM): 79.2%
viability, T/C (second compound 0.01 µM, first compound 0.000949 µM): 95.8%
viability, T/C (second compound 0.01 µM, first compound 0.003 µM): 93.3%
viability, T/C (second compound 0.01 µM, first compound 0.00949 µM): 88.4%
viability, T/C (second compound 0.01 µM, first compound 0.03 µM): 78.8%
viability, T/C (second compound 0.01 µM, first compound 0.0949 µM): 82.9%
viability, T/C (second compound 0.01 µM, first compound 0.3 µM): 84.9%
viability, T/C (second compound 0.0316 µM, first compound 0.000949 µM): 108%
viability, T/C (second compound 0.0316 µM, first compound 0.003 µM): 89.9%
viability, T/C (second compound 0.0316 µM, first compound 0.00949 µM): 96.2%
viability, T/C (second compound 0.0316 µM, first compound 0.03 µM): 75.7%
viability, T/C (second compound 0.0316 µM, first compound 0.0949 µM): 86.9%
viability, T/C (second compound 0.0316 µM, first compound 0.3 µM): 77.4%
viability, T/C (second compound 0.1 µM, first compound 0.000949 µM): 89.5%
viability, T/C (second compound 0.1 µM, first compound 0.003 µM): 95.4%
viability, T/C (second compound 0.1 µM, first compound 0.00949 µM): 101%
viability, T/C (second compound 0.1 µM, first compound 0.03 µM): 84.7%
viability, T/C (second compound 0.1 µM, first compound 0.0949 µM): 88%
viability, T/C (second compound 0.1 µM, first compound 0.3 µM): 78.4%
viability, T/C (second compound 0.316 µM, first compound 0.000949 µM): 99%
viability, T/C (second compound 0.316 µM, first compound 0.003 µM): 94%
viability, T/C (second compound 0.316 µM, first compound 0.00949 µM): 96.3%
viability, T/C (second compound 0.316 µM, first compound 0.03 µM): 83.8%
viability, T/C (second compound 0.316 µM, first compound 0.0949 µM): 83.9%
viability, T/C (second compound 0.316 µM, first compound 0.3 µM): 81.1%
viability, T/C (second compound 1 µM, first compound 0.000949 µM): 90.2%
viability, T/C (second compound 1 µM, first compound 0.003 µM): 87.3%
viability, T/C (second compound 1 µM, first compound 0.00949 µM): 96.3%
viability, T/C (second compound 1 µM, first compound 0.03 µM): 78.6%
viability, T/C (second compound 1 µM, first compound 0.0949 µM): 88.9%
viability, T/C (second compound 1 µM, first compound 0.3 µM): 79.2%

pIC50 (curve of compound): < 5.00
Structure (SMILES): Cc1nc(N2CCC3(CC2)COC(C)C3N)c(CO)nc1Sc1ccnc(N)c1Cl (stereo not drawn)
viability, T/C (compound 0.0316 µM): 87% [middle of 4 runs]
viability, T/C (compound 0.1 µM): 85.2% [middle of 4 runs]
viability, T/C (compound 0.316 µM): 73.3% [middle of 4 runs]
viability, T/C (compound 1 µM): 76.3% [middle of 4 runs]
viability, T/C (compound 3.16 µM): 65.7% [middle of 4 runs]
viability, T/C (compound 10 µM): 59.8% [middle of 4 runs]

pIC50 [1]: < 6.00
pIC50 [2]: < 6.00
pIC50 [3]: < 6.00
pIC50 [4]: < 6.00
pIC50 [5]: 6.30
pIC50 [6]: > 8.50
Structure (SMILES): C=CC(=O)N1CCN(c2nc(OCC3CCCN3C)nc3c(F)c(-c4nc(N)cc(C)c4C(F)(F)F)c(Cl)cc23)C(C)C1 (stereo not drawn) + C#Cc1c(F)ccc2cc(O)cc(-c3ncc4c(N5CC6CCC(C5)N6)nc(OCC56CCCN5CC(F)C6)nc4c3F)c12
viability, T/C (second compound 0.0316 µM, first compound 0.00316 µM): 88.4%
viability, T/C (second compound 0.0316 µM, first compound 0.01 µM): 104%
viability, T/C [7]: 96.7%
viability, T/C [8]: 95%
viability, T/C [9]: 98.5%
viability, T/C [10]: 92.9%
viability, T/C (second compound 0.1 µM, first compound 0.00316 µM): 98.4%
viability, T/C (second compound 0.1 µM, first compound 0.01 µM): 89.5%
viability, T/C [11]: 98.5%
viability, T/C [12]: 85.5%
viability, T/C [13]: 94.7%
viability, T/C [14]: 83.3%
viability, T/C (second compound 0.316 µM, first compound 0.00316 µM): 91.6%
viability, T/C (second compound 0.316 µM, first compound 0.01 µM): 88%
viability, T/C [15]: 95.5%
viability, T/C [16]: 83.1%
viability, T/C [17]: 89%
viability, T/C [18]: 67%
viability, T/C (second compound 1 µM, first compound 0.00316 µM): 76.2%
viability, T/C (second compound 1 µM, first compound 0.01 µM): 78.4%
viability, T/C [19]: 67.2%
viability, T/C [20]: 67.3%
viability, T/C [21]: 60.4%
viability, T/C [22]: 58.4%
viability, T/C (second compound 3.16 µM, first compound 0.00316 µM): 56.3%
viability, T/C (second compound 3.16 µM, first compound 0.01 µM): 53%
viability, T/C [23]: 62.9%
viability, T/C [24]: 58.7%
viability, T/C [25]: 52.6%
viability, T/C [26]: 41.5%
viability, T/C (second compound 10 µM, first compound 0.00316 µM): 39.6%
viability, T/C (second compound 10 µM, first compound 0.01 µM): 39.8%
viability, T/C [27]: 37.8%
viability, T/C [28]: 45.8%
viability, T/C [29]: 38.6%
viability, T/C [30]: 42.8%

pIC50 [1]: < 5.00
pIC50 [2]: < 5.00
pIC50 [3]: < 5.00
pIC50 [4]: < 5.00
pIC50 [5]: < 5.00
pIC50 [6]: > 7.50
Structure (SMILES): C[C@@H](NC(=O)c1ncnc(N)c1Cl)c1ncc(C(=O)Nc2cc(C(F)(F)F)c(Cl)cn2)s1 + C#Cc1c(F)ccc2cc(O)cc(-c3ncc4c(N5CC6CCC(C5)N6)nc(OCC56CCCN5CC(F)C6)nc4c3F)c12
viability, T/C [7]: 99.8%
viability, T/C [8]: 117%
viability, T/C [9]: 108%
viability, T/C [10]: 102%
viability, T/C (second compound 0.0316 µM, first compound 3.16 µM): 101%
viability, T/C (second compound 0.0316 µM, first compound 10 µM): 80.2%
viability, T/C [11]: 109%
viability, T/C [12]: 106%
viability, T/C [13]: 101%
viability, T/C [14]: 100%
viability, T/C (second compound 0.1 µM, first compound 3.16 µM): 94.3%
viability, T/C (second compound 0.1 µM, first compound 10 µM): 70.9%
viability, T/C [15]: 99.8%
viability, T/C [16]: 95.1%
viability, T/C [17]: 101%
viability, T/C [18]: 93%
viability, T/C (second compound 0.316 µM, first compound 3.16 µM): 81.6%
viability, T/C (second compound 0.316 µM, first compound 10 µM): 70.3%
viability, T/C [19]: 87.9%
viability, T/C [20]: 83.2%
viability, T/C [21]: 88.5%
viability, T/C [22]: 84.1%
viability, T/C (second compound 1 µM, first compound 3.16 µM): 76.3%
viability, T/C (second compound 1 µM, first compound 10 µM): 57.2%
viability, T/C [23]: 59.2%
viability, T/C [24]: 60.5%
viability, T/C [25]: 65.9%
viability, T/C [26]: 63.9%
viability, T/C (second compound 3.16 µM, first compound 3.16 µM): 56.9%
viability, T/C (second compound 3.16 µM, first compound 10 µM): 42.5%
viability, T/C [27]: 35.1%
viability, T/C [28]: 34.4%
viability, T/C [29]: 42.2%
viability, T/C [30]: 37.9%
viability, T/C (second compound 10 µM, first compound 3.16 µM): 41.3%
viability, T/C (second compound 10 µM, first compound 10 µM): 27.8%
